Where a name gives a salt, the structure may show the parent alone.
Assays:
[1] = tested on: yeast-induced febrile response; assay: Anti-pyretic activity (yeast-induced febrile response, rectal temperature); type: in vivo, Male CD rats; conditions: CD rats; for effect on the febrile response (rectal temperature): 30 mg/kg ip 18 hours after yeast, FIG. 1
Description: This test allows in vivo evaluation of the effects on the yeast-induced febrile response. Male CD rats weighing 101-125 g were used. Fevers were induced by subcutaneous injection of a 15% yeast suspension. 18 hours after the administration of yeast, a first group of animals was treated intraperitoneally (30 mg/kg) with Compound 2, while a second group of animals was treated with the Comparison Compound. A third group of control animals received intraperitoneally only the vehicle (methylcellulose) used to administer the tested compounds. For all the groups, the rectal temperature was measured 30 minutes and 1, 2 and 4 hours after the treatment.

[2] = tested on: nociceptive response induced by mechanical hyperalgesia; assay: Anti-nociceptive activity (carrageenan-induced mechanical hyperalgesia, analgesimeter); type: in vivo, Male CD rats; conditions: Rattus norvegicus; CD rats, ip 2 hours after carrageenan, evaluated 1, 2 and 4 hours after treatment; read-out: ED50 (anti-nociceptive, mechanical pain threshold)
[3] = target: T1, enzyme 5-LO (Homo sapiens, UniProt P09917); assay: Effect on the enzyme 5-LO in vitro (human PMNL cells, arachidonic acid substrate, leukotriene quantification); type: cell-based; conditions: arachidonic acid as substrate, leukotriene (LT4) quantified
T1 construct: Human PMNL cells (polymorphonuclear leukocytes) were used; endogenous in cells; host or cells: human polymorphonuclear leukocytes (PMNL)
T1 sequence (P09917 1-674): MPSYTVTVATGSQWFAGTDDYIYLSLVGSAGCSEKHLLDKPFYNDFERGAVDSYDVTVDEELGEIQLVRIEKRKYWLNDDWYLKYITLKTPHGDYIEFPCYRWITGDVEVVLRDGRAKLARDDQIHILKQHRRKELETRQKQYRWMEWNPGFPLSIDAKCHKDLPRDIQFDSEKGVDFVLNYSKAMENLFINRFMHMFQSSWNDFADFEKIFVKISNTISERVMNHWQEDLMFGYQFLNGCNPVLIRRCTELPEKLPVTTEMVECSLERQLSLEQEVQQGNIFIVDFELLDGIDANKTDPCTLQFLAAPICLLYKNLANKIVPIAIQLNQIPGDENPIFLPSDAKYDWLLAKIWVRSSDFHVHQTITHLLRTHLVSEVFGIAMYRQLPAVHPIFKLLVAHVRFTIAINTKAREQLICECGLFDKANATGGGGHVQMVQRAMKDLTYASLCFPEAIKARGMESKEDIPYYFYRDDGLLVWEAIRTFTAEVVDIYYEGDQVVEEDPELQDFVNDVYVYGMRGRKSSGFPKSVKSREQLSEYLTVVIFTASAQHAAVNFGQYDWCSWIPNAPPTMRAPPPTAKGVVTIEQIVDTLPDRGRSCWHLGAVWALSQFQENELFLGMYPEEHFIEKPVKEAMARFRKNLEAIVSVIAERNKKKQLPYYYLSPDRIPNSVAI
Description: Human PMNL cells (polymorphonuclear leukocytes) were used.
The cells were incubated in the presence of N-(4-hydroxy-3,5-di-methylphenyl)-2-morpholin-4-yl acetamide hydrochloride (Compound 2), using arachidonic acid as reaction substrate.
The activity of the enzyme 5-LO was evaluated by quantifying leukotriene […], which is the final product of the enzymatic reaction.

[4] = tested on: 5-LO-mediated bronchoconstriction; assay: Effect on 5-LO-mediated bronchoconstriction in vivo (ovalbumin-sensitized guinea pigs, intratracheal pressure); conditions: Cavia porcellus, 100 mg/kg ip, 30 minutes before ovalbumin 15 μg/kg iv, read-out: percentage of inhibition of bronchoconstriction
Description: Guinea pigs weighing 250-400 g were used.
The animals were sensitized by administration on days 1 and 8 of ovalbumin (0.5 μg/animal, ip). Between days 19 and 23 after the sensitization, the capacity of ovalbumin (15 μg/kg, iv) to induce bronchoconstriction was tested by measuring the increase in intratracheal pressure.
On the day of the test, 30 minutes after administration of Compound 2 (100 mg/kg, ip), the animals were treated with mepiramine (2 mg/kg, iv), indomethacin (10 mg/kg, iv) and propranolol (0.1 mg/kg, iv), and then received ovalbumin (15 μg/kg, iv) to induce bronchoconstriction. The control animals received intraperitoneally only the vehicle used (methylcellulose) for the administration of the tested compound.
The effects on 5-LO-mediated bronchoconstriction in vivo were evaluated by measuring the intratracheal pressure, and are expressed as a percentage of inhibition of bronchoconstriction.

[5] = tested on: PAN-induced nephrosis; assay: Effects on PAN-induced nephrosis (proteinuria over 24 hours); type: in vivo, Male SD rats; conditions: Rattus norvegicus, SD rats, 100 mg/kg ip on seventh day, read-out: percentage of inhibition of the amount of protein excreted (PAN-induced nephrosis)
Description: This test allows the in vivo evaluation of the effects on renal damage induced by the inflammatory response following the administration of PAN (puromycin aminonucleoside). Male SD rats weighing 180-220 g were used. The nephrosis was induced by intravenous injection of PAN (100 mg/kg). On the sixth day of administration of PAN, the presence of nephrosis was determined by measuring the amount of protein excreted in the urine over 24 hours (basal proteinuria). On the seventh day, the rats were treated intraperitoneally with Compound 2 (100 mg/kg) and for the next 24 hours the urine was collected to measure the proteinuria. By following the same method, the control animals received, intraperitoneally, only the vehicle (methylcellulose) used to administer the tested compound. The effects on the PAN-induced nephrosis were evaluated by measuring the proteinuria over 24 hours and expressed as a percentage of inhibition of the amount of protein excreted.

[6] = tested on: nephritis induced by anti-GBM antibodies; assay: Effects on nephritis induced by anti-GBM antibodies (proteinuria over 24 hours); type: in vivo, Male WKY rats; conditions: Rattus norvegicus, WKY rats, 100 mg/kg ip, 2 administrations per day, tenth day, read-out: percentage of inhibition of the amount of protein excreted (anti-GBM nephritis)
Description: This test allows evaluation in vivo of the effects on renal damage induced by the inflammatory response following the administration of anti-GBM antibodies (anti-glomerular basal membrane antibodies). Male WKY rats weighing 180-220 g were used. The nephritis was induced by intravenous injection of anti-GBM antibodies. Immediately after administration of the antibody and 6 hours later, Compound 2 was administered intraperitoneally (100 mg/kg). The treatment was continued for the following 9 days, with 2 administrations per day of the tested product. By following the same methods, the control animals received only the vehicle (methylcellulose) used to administer the tested compound. On the tenth day from injection of the antibodies, the effects on nephritis were evaluated by measuring the proteinuria over 24 hours and expressed as a percentage of inhibition of the amount of protein excreted.

[7] = tested on: 5-LO-mediated bronchoconstriction; conditions: Sakuma Y et al., Prostaglandins, 1991; cited from earlier work

IC50 [3] [µM]	SMILES	effect on the febrile response (rectal temperature) [1]	ED50 [2] [mg/kg]	inhibition at 100 mg/kg [4] [%]	inhibition at 100 mg/kg [5] [%]	inhibition at 100 mg/kg [6] [%]	duration of the anti-pyretic effects ([1]; 30 mg/kg ip)	time to significant reduction in the febrile response after treatment ([1]; 30 mg/kg ip) [h]	percentage of inhibition of bronchoconstriction (literature reference) [7] [%]
–	Cc1cc(NC(=O)CCN2CCOCC2)cc(C)c1O [Comparison Compound, N-(4-Hydroxy-3,5-dimethylphenyl)-3-morpholin-4-yl propanamide hydrochloride, reference compound]	incapable of reducing the febrile response	> 100	–	–	–	–	–	–
31	Cc1cc(NC(=O)CN2CCOCC2)cc(C)c1O [Compound 2, N-(4-Hydroxy-3,5-dimethylphenyl)-2-morpholin-4-yl acetamide hydrochloride]	significant reduction in the febrile response	3	7	2	1	about 4 hours	≤ 1	–
–	O=C1CCN(c2ccccc2)N1 [phenidone]	–	–	–	–	–	–	–	86
